Reference: paper PMC6315005, “5F-Cumyl-PINACA in ‘e-liquids’ for electronic cigarettes: comprehensive characterization of a new type of synthetic cannabinoid in a trendy product including investigations on the in vitro and in vivo phase I metabolism of 5F-Cumyl-PINACA and its non-fluorinated analog Cumyl-PINACA” (Forensic Toxicology, 2018)
Entries after “also recorded” stand apart in the source; their conditions may differ.

Tests used:
[1] = Self-administration study, serum concentrations of Cumyl-PINACA (LC-MS/MS); type: in vivo, human; settings: 0.6 mg oral, one volunteer
Source text: For analysis of the serum samples, a routinely used LC–MS/MS screening method, currently covering 94 compounds with at least two ion transitions for each analyte and one ion transition for each internal standard in positive scheduled multiple reaction monitoring (+sMRM) was applied. Briefly, a QTRAP™ 4000 triple quadrupole linear ion trap instrument (Sciex, Darmstadt, Germany) equipped with a TurbolonSpray® interface and coupled to a Shimadzu Prominence HPLC system consisting of two LC-20 AD SP isocratic pumps, SIL 20 AC autosampler, CTO-20A controller (Shimadzu, Duisburg, Germany) and Analyst® software version 1.6.2 were used (Sciex). […] The total flow rate was 0.5 mL/min. The autosampler and the column oven temperatures were set to 10 and 40 °C, respectively. The monitored ion transitions used for Cumyl-PINACA were m/z 350→215 and 350→232.
To investigate the in vivo phase I metabolism of Cumyl-PINACA, one of the authors (75 kg person) ingested 0.6 mg Cumyl-PINACA orally. In addition to blank samples taken prior to ingestion, serum and urine samples were collected repeatedly over periods of 17 and 31 h after ingestion, respectively. All samples were stored at − 20 °C until analysis. In Germany, approval by an ethics committee is not required for scientific self-experiments.
A 1-mL aliquot of a serum sample was spiked with 10 µL of an internal standard solution mixture (25 ng/mL each, ADBICA-d9, AKB48-d9, JWH-007-d9, JWH-015-d7, JWH-018-d11, JWH-073-d9, JWH-081-d9, JWH-122-d9, JWH-200-d5, JWH-210-d9, JWH-250-d5, JWH-398-d9, MAM-2201-d5, PB-22-d9, RCS-4-d9, UR-144-d5, XLR-11-d5). A 0.5-mL volume carbonate buffer (pH 10) and 1.5 mL of extraction mixture 1 (n-hexane/ ethyl acetate, 99:1, v/v) were added. After gentle mixing for 5 min, the sample was centrifuged and 1 mL of the supernatant was transferred to an HPLC vial. Subsequently, 1.5 mL of extraction mixture 2 (n-hexane/ethyl acetate, 80:20, v/v) was added to the residue, and the mixing and centrifugation steps were repeated. A 1-mL volume of the supernatant was added to the same HPLC vial, and after evaporation under a gentle stream of nitrogen at 40 °C and reconstitution in 100 µL of mobile phase (A/B, 80:20, v/v), the sample was analyzed using LC–MS/MS.

CB1 = molecular target: T1, CB1 (Homo sapiens, UniProt P21554); test: cAMP biosensor assay with CB1 as target (DiscoveRx); type: cell-based
T1 construct: purchased DiscoveRx (Fremont, CA, USA)
Procedure: Each compound was tested in duplicates; to induce response, 20 µM forskolin was used.

CB1 receptor = system: CB1 receptor; set-up: method as in PMID 29367862; settings: [35S]GTPγS binding; cited from earlier work
[2] = Self-administration study, phase I metabolites of Cumyl-PINACA in urine (LC-MS/MS); type: in vivo, human; settings: 0.6 mg Cumyl-PINACA oral
CB2 receptor = system: CB2 receptor; set-up: method as in PMID 29367862; settings: [35S]GTPγS binding; cited from earlier work
CB1 receptors = system: CB1 receptors; set-up: method as in PMID 28792725; settings: mouse AtT-20 neuroblastoma cells, membrane potential; cited from earlier work
CB2 receptors = system: CB2 receptors; set-up: method as in PMID 28792725; settings: mouse AtT-20 neuroblastoma cells, membrane potential; cited from earlier work

T1 sequence (P21554 whole entry): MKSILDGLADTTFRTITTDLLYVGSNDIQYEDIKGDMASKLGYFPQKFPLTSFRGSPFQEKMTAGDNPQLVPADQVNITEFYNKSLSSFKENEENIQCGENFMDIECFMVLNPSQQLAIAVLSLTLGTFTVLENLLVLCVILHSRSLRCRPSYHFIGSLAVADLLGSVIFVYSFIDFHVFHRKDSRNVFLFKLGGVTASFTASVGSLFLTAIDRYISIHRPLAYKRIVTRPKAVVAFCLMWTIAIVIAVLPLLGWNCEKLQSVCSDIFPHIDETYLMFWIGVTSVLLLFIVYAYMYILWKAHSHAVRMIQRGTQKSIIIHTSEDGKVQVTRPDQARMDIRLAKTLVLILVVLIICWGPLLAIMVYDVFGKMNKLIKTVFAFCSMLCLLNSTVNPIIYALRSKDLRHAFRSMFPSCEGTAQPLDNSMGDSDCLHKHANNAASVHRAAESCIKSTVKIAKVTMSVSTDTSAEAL

Question: What does the source list for `CCCCCn1nc(C(=O)NC(C)(C)c2ccccc2)c2ccccc21` [Cumyl-PINACA, 1-pentyl-N-(2-phenylpropan-2-yl)-1H-indazole-3-carboxamide]?
Answer: drug-related symptoms [1]: did not experience any drug-related symptoms; maximum concentration measured in serum [1]: 0.1 ng/mL; period of detection in serum [1]: about 17 h; Tmax ([1]; human, serum, read-out: time of maximum serum concentration after ingestion): 6 h; EC50 (CB1): 0.06 nM; relative potency among the tested substances (CB1): most potent SC among the tested compounds; also recorded: most potent substance in this assay; Curve top (CB1; agonist format, 20 µM forskolin): 93.7; Emax (CB1; control ligand CP-55,940, read-out: Maximum response (compared to CP-55,940)): 92.9%; CB1 activity compared to CP-55,940 (CB1 receptor): less activities as compared to CP-55,940; detection of parent compound in urine [2]: not detected in urine; CB2 activity compared to CP-55,940 (CB2 receptor): less activities as compared to CP-55,940; potency of CB1 receptor activation compared to CP-55,940 (CB1 receptors): greater potency than CP-55,940; potency of CB2 receptor activation compared to CP-55,940 (CB2 receptors): greater potency than CP-55,940
